12 molecules from PMC9398717, “Comparison of Pharmacokinetic Profiles of 14 Major Bioactive Components in Normal and Arthritic Model Rats after Oral Administration of Angelicae pubescentis Radix by UPLC-MS/MS” (Evidence-based Complementary and Alternative Medicine : eCAM, 2022) can be followed below.

A short description of this data set: Pharmacokinetic study in normal and arthritic model rats after oral administration of APR extract (UPLC-MS/MS of plasma). To be noted: for Cmax / MRT last / half-life / Tmax: Sprague-Dawley, rat, po, 4.1 mL/kg; for Cmax: C max; for MRT last: MRT0-t; for Tmax: t max. As for the experimental part: One hundred grams of the APR sample was extracted by reflux with 800 mL 50% ethanol/water (v/v) for 3 times (2 hours each time), then combined with the filtrate and concentrated under vacuum with heat, and the concentration of APR extract was 0.37 g/mL. All the sample solutions were stored at 4°C before analysis.
Twelve SD rats were randomly divided into two groups (n = 6) and named as the model group and the normal group, respectively. The arthritic model was established by injecting 0.1 mL of complete Freund's adjuvant in rats. As a control, 0.1 mL of saline was injected. After 7 days, the plasma levels of MDA and TNF-α in normal and model rats were measured by an enzyme-linked immunosorbent assay kit to determine whether the modeling was successful.
The ultrahigh performance liquid chromatography (Thermo Scientific™, Vanquish™, (Waltham, MA, USA)) was used for the chromatographic analysis. UPLC separation was achieved on a Thermo Hypersil GOLD C18 column (100 mm × 2.1 mm, 1.9 μm), which was maintained at 35°C.
The UPLC was interfaced to a Thermo TSQ QUANTIS triple quadrupole mass spectrometer and equipped with an electrospray ionization (ESI) probe working in positive and negative ion exchange scanning mode.
Acetonitrile was used as a precipitation solvent, and protein precipitation was used to handle with the plasma samples. […] Then, the supernatant was dried in a nitrogen environment at 45°C, and the remaining residue was recombined with 100 μL 50% methanol aqueous and vortex for 1 min. Finally, 2 μL supernatant was injected into the UPLC-MS/MS system for analysis.

The mark [1] stands for this setting: in vivo, arthritic model rats (complete Freund's adjuvant), oral APR extract 4.1 mL/kg, plasma, mean ± SD, n = 6.
[2] abbreviates: in vivo, normal rats, oral APR extract 4.1 mL/kg, plasma, mean ± SD, n = 6.
Where [3] appears, read: plasma, arthritic model rats (complete Freund's adjuvant), oral APR extract 4.1 mL/kg, mean ± SD, n = 6.
Setting [4] is: plasma, normal rats, oral APR extract 4.1 mL/kg, mean ± SD, n = 6.
[5] abbreviates: plasma, t 1/2, arthritic model rats (complete Freund's adjuvant), oral APR extract 4.1 mL/kg, mean ± SD, n = 6.
Where [6] appears, read: plasma, t 1/2, normal rats, oral APR extract 4.1 mL/kg, mean ± SD, n = 6.
Setting [7] is: oral APR, concentration-time curve.

Consider `COc1c2occc2cc2ccc(=O)oc12` [Xanthotoxin, xanthotoxin], for which, under setting [1], the highest concentration (Cmax) (as a rule, the maximum level reached in the sampled fluid or tissue) was 528 ± 35 ng/mL; the MRT last (in general, a mean duration of stay, worked out from the concentration-time curve) is 10.3 ± 0.51 h; the time to peak (Tmax) – broadly, the time from dosing to the highest level – was 3.33 ± 1.03 h. Under setting [2], the peak concentration (Cmax) is 554 ± 76 ng/mL, the MRT last stood at 10.7 ± 0.53 h and the time to peak (Tmax) came to 4.33 ± 0.82 h. Also, the half-life (usually how long it takes for the measured level to halve) (in vivo, t 1/2, arthritic model rats (complete Freund's adjuvant), oral APR extract 4.1 mL/kg, plasma, mean ± SD, n = 6) is 14.2 ± 3.76 h. For the same molecule, the half-life (in vivo, t 1/2, normal rats, oral APR extract 4.1 mL/kg, plasma, mean ± SD, n = 6) was 12.1 ± 1.73 h.

Turning to `COc1ccc2ccc(=O)oc2c1CC=C(C)C` [Osthol, osthol], the maximum concentration (Cmax) was 4560 ± 272 ng/mL under setting [3] and 3640 ± 286 ng/mL under setting [4]. The mean residence time (MRT last) under setting [3] was 6.94 ± 0.42 h and the MRT last under setting [4] was 6.53 ± 0.29 h. In addition, the half-life runs as follows: under setting [5], 6.42 ± 0.69 h; under setting [6], 13.4 ± 0.51 h. Moreover, the time to peak (Tmax) runs as follows: under setting [3], 0.91 ± 0.2 h; under setting [4], 1.16 ± 0.4 h. In addition, where the note is “model vs normal rats, oral APR”, the “change of CL in model rats compared with normal rats” value (from here on “change of CL in model rats”) is “decreased”.

Take `O=C(/C=C/c1ccc(O)c(O)c1)O[C@@H]1[C@H](O)C[C@@](O)(C(=O)O)C[C@H]1OC(=O)/C=C/c1ccc(O)c(O)c1` [3,4-diCQA, isochlorogenic acid B]: under setting [3], the maximum concentration (Cmax) came out at 79.7 ± 7.11 ng/mL, the mean residence time (MRT last) was 19.8 ± 0.4 h and the time of peak concentration (Tmax) was determined as 0.29 ± 0.1 h. Under setting [4], the highest level (Cmax) was 85.7 ± 8.14 ng/mL, the MRT last is 21.2 ± 0.73 h and the Tmax worked out at 0.29 ± 0.1 h. Further, the half-life under setting [5] was 84.5 ± 24.3 h. For the same molecule, under setting [6], the half-life was 58 ± 12 h. Also, the “change of AUC0-t in model rats compared with normal rats” value (“change of AUC0-t in model rats” for short) (model vs normal rats, oral APR) was “decreased”.

On to `O=C(C=Cc1ccc(O)c(O)c1)OC1CC(O)(C(=O)O)CC(O)C1O` (stereo not drawn) [Neochlorogenic acid], for which the Cmax under setting [3] is 531 ± 24.1 ng/mL and the Cmax under setting [4] worked out at 420 ± 58.6 ng/mL. In addition, the MRT last by setting is: under setting [3], 15.6 ± 0.26 h; under setting [4], 15.6 ± 0.68 h. The half-life was 31.8 ± 10.2 h under setting [5] and 39.9 ± 16.5 h under setting [6]. The Tmax under setting [3] was 0.23 ± 0.03 h and the Tmax under setting [4] turned out to be 0.2 ± 0.04 h. The “change in the pharmacokinetic parameters in normal and model rats” value (model vs normal rats, oral APR) is recorded as “no significant change”.

On to `COc1c2ccoc2cc2oc(=O)ccc12` [Bergapten, bergapten], for which, under setting [3], the Cmax worked out at 518 ± 42.9 ng/mL, the MRT last came out at 7.11 ± 0.09 h and the time of peak concentration (Tmax) turned out to be 4.67 ± 1.03 h. Also, under setting [4], the concentration peaked (Cmax) at 383 ± 95.8 ng/mL, the MRT last is 9.4 ± 0.34 h and the time to peak (Tmax) is 3.67 ± 0.82 h. Besides, the half-life under setting [5] was 7.16 ± 0.41 h. Also, the half-life under setting [6] was 9.41 ± 2.12 h. Further, where the note is “model vs normal rats, oral APR”, the “change of CL in model rats” value is recorded as “decreased” and the “change of MRT in model rats compared with normal rats” value (“change of MRT in model rats” for short) is listed as “shortened”. Besides, under setting [7], the “time of first plasma peak after administration of APR” value is given as 5 min and the “time of second plasma peak after administration of APR” value came to 4 h.

Take `CC(C)=CCOc1c2ccoc2cc2oc(=O)ccc12` [Isoimperatorin, isoimperatorin]: the Cmax came out at 232 ± 21 ng/mL under setting [3] and 224 ± 26.8 ng/mL under setting [4]. In addition, the mean residence time (MRT last) is, setting by setting: under setting [3], 15.7 ± 0.65 h; under setting [4], 15.1 ± 0.57 h. Besides, the half-life was 26.8 ± 5.46 h under setting [5] and 26.9 ± 8.34 h under setting [6]. The Tmax amounted to 0.58 ± 0.2 h under setting [3] and 0.58 ± 0.2 h under setting [4].

With `O=C(/C=C/c1ccc(O)c(O)c1)O[C@@H]1C[C@](O)(C(=O)O)C[C@@H](O)[C@H]1O` [Chlorogenic acid, chlorogenic acid], under setting [3], the highest concentration (Cmax) was determined as 2760 ± 264 ng/mL, the MRT last was 8.68 ± 0.52 h and the time of peak concentration (Tmax) turned out to be 0.45 ± 0.1 h. Also, under setting [4], the mean residence time MRT last came to 5.95 ± 0.28 h and the Tmax was 0.54 ± 0.36 h. The half-life under setting [5] is 52 ± 13.2 h. The half-life under setting [6] was 27.9 ± 14.8 h. Moreover, under “model vs normal rats, oral APR”, the “change of AUC0-t in model rats” value was “increased”, the “change of Cmax in model rats compared with normal rats” value (from here on “change of Cmax in model rats”) is “increased”, the “change of MRT in model rats” value was “longer” and the “change of t1/2 in model rats compared with normal rats” value (from here on “change of t1/2 in model rats”) is reported as “longer”. The molecule also yielded a C max (normal rats, oral APR extract 4.1 mL/kg, plasma, mean ± SD, n = 6) of 1669.61 ± 25.80 ng/mL.

Take `O=C(/C=C/c1ccc(O)c(O)c1)O[C@H]1[C@H](O)C[C@](O)(C(=O)O)C[C@H]1O` [Cryptochlorogenic acid, cryptochlorogenic acid]: under setting [3], the maximum concentration (Cmax) is 189 ± 8.7 ng/mL, the mean residence time MRT last came to 19.5 ± 0.55 h and the Tmax worked out at 0.45 ± 0.1 h. Moreover, under setting [4], the peak concentration (Cmax) is 143 ± 4.63 ng/mL, the MRT last is 18.3 ± 0.46 h and the Tmax is 0.42 ± 0.12 h. Also, the half-life under setting [5] is 48.4 ± 10.5 h. For the same molecule, the half-life under setting [6] is 34.5 ± 17.6 h. Further, where the note is “model vs normal rats, oral APR”, the “change of AUC0-t in model rats” value is given as “increased”, the “change of Cmax in model rats” value is “increased”, the “change of MRT in model rats” value was “longer” and the “change of t1/2 in model rats” value is given as “longer”.

Take `C/C=C(/C)C(=O)OC(C)(C)[C@@H]1Cc2c(ccc3ccc(=O)oc23)O1` [Columbianadin, columbianadin]: under setting [3], the Cmax turned out to be 1500 ± 48.2 ng/mL, the MRT last is 11.5 ± 0.87 h and the Tmax stood at 0.23 ± 0.03 h. In addition, under setting [4], the Cmax stood at 1680 ± 222 ng/mL, the MRT last was determined as 12.3 ± 0.57 h and the Tmax was found to be 0.23 ± 0.03 h. For the same molecule, the half-life under setting [5] was 16.5 ± 4.83 h. The same molecule showed a half-life under setting [6] of 16.4 ± 3.96 h. For the same molecule, the “change of CL in model rats” value (model vs normal rats, oral APR) was “decreased”.

In the case of `O=C(C=Cc1ccc(O)c(O)c1)OC1CC(O)(C(=O)O)CC(OC(=O)C=Cc2ccc(O)c(O)c2)C1O` (stereo not drawn) [3,5-diCQA, isochlorogenic acid A], under setting [3], the peak concentration (Cmax) is 405 ± 49.2 ng/mL, the MRT last stood at 18.8 ± 0.49 h and the Tmax turned out to be 0.18 ± 0.03 h. Under setting [4], the highest concentration (Cmax) was 293 ± 47.7 ng/mL, the MRT last amounted to 21.1 ± 0.68 h and the time of peak concentration (Tmax) amounted to 0.18 ± 0.03 h. Moreover, the half-life under setting [5] was 59.5 ± 17.2 h. Besides, the half-life under setting [6] is 33.9 ± 14.3 h. For the setting “model vs normal rats, oral APR”, the “change of AUC0-t in model rats” value is recorded as “decreased”, the “change of AUC0-∞ in model rats compared with normal rats” value is listed as “increasing”, the “change of Cmax in model rats” value is “increasing” and the “change of t1/2 in model rats” value is given as “prolonging”.

In the case of `O=c1ccc2cc3ccoc3cc2o1` [Psoralen, psoralen], under setting [3], the Cmax turned out to be 327 ± 42.5 ng/mL, the mean residence time MRT last was determined as 12.9 ± 0.22 h and the Tmax stood at 7.66 ± 0.81 h. In addition, under setting [4], the peak concentration (Cmax) came to 210 ± 27.6 ng/mL, the MRT last is 14.3 ± 0.31 h and the Tmax was determined as 8 ± 1.26 h. Besides, the half-life under setting [5] is 5.98 ± 0.44 h. Further, the half-life under setting [6] is 9.8 ± 3.28 h. For the same molecule, where the note is “model vs normal rats, oral APR”, the “change of CL in model rats” value was “decreased” and the “change of MRT in model rats” value is “shortened”.

Consider `CC(C)(O)[C@@H]1Cc2c(ccc3ccc(=O)oc23)O1` [Columbianetin, columbianetin], for which, under setting [3], the Cmax was 2220 ± 168 ng/mL, the MRT last worked out at 12.1 ± 0.2 h and the Tmax was determined as 9 ± 1.09 h. In addition, under setting [4], the peak level (Cmax) was 3120 ± 242 ng/mL, the mean residence time MRT last is 13.3 ± 0.36 h and the Tmax was found to be 9.67 ± 0.82 h. The half-life under setting [5] was 6.07 ± 1.28 h. Also, the half-life under setting [6] is 6.04 ± 0.12 h. Where the note is “model vs normal rats, oral APR”, the “change of AUC0-t in model rats” value is reported as “decreased”, the “change of AUC0-∞ in model rats compared with normal rats” value is reported as “decreased”, the “change of CL in model rats” value is given as “increased” and the “change of Cmax in model rats” value is “decreased”. In addition, the “change of MRT in model rats” value (model vs normal rats, oral APR) was “shortened”.
